Reference: ChEMBL document CHEMBL1149045, “Further butenolides from the Caribbean octocoral Pterogorgia citrina” (J Nat Prod, 1994)
Active and inactive are the calls of the source. No cut-off for these calls is given here.

Experiments:
[1] = system: Escherichia coli; experiment: Antimicrobial activity against Escherichia coli at 5 ug/disk; assay type: functional, organism-based
[2] = system: Staphylococcus aureus; experiment: Antimicrobial activity against Staphylococcus aureus at 1 ug/disk; assay type: functional, organism-based
[3] = system: Escherichia coli; experiment: Antimicrobial activity against Escherichia coli at 10 ug/disk; assay type: functional, organism-based
[4] = system: Staphylococcus aureus; experiment: Antimicrobial activity against Staphylococcus aureus at 5 ug/disk; assay type: functional, organism-based
[5] = system: Staphylococcus aureus; experiment: Antimicrobial activity against Staphylococcus aureus at 10 ug/disk; assay type: functional, organism-based
[6] = system: Escherichia coli; experiment: Antimicrobial activity against Escherichia coli at 1 ug/disk; assay type: functional, organism-based
[7] = system: HCT-116; experiment: Cytotoxicity against human HCT116 cells; assay type: functional, cell-based

| Compound | Activity [1] | Activity [2] | Activity [3] | Activity [4] | Activity [5] | Activity [6] | IC50 [7] |
| --- | --- | --- | --- | --- | --- | --- | --- |
| CC(=O)O[C@@H]1[C@H](C)OC(=O)[C@@H]1CCCCCC/C=C\CCCCCCC1=C[C@H](C)OC1=O | inactive | inactive | inactive | inactive | inactive | inactive | – |
| C[C@@H]1OC(=O)[C@@H](CCCCCCCCCCCCC2=C[C@H](C)OC2=O)[C@H]1O | inactive | inactive | inactive | inactive | inactive | inactive | – |
| C[C@H]1C=C(CCCCCC/C=C\CCCCCCC2=C[C@H](C)OC2=O)C(=O)O1 | inactive | inactive | inactive | inactive | inactive | inactive | > 50 µg/mL |
| CC(=O)O[C@H]1[C@H](C)OC(=O)[C@H]1CCCCCCCCCCCCCCC1=C[C@H](C)OC1=O | inactive | inactive | inactive | inactive | inactive | inactive | – |
| C[C@H]1C=C(CCCCCCCCCCCCCCC2=C[C@H](C)OC2=O)C(=O)O1 [HOMOANCEPSENOLIDE] | inactive | inactive | inactive | inactive | inactive | inactive | > 50 µg/mL |
| CC(=O)O[C@H]1[C@H](C)OC(=O)[C@H]1CCCCCCCCCCCCC1=C[C@H](C)OC1=O | inactive | inactive | inactive | inactive | inactive | inactive | – |
| CC(=O)O[C@@H]1[C@H](C)OC(=O)[C@@H]1CCCCCCCCCCCCC1=C[C@H](C)OC1=O [ANCEPSENOLIDE ACETATE] | inactive | inactive | inactive | inactive | inactive | inactive | > 50 µg/mL |
| CC(=O)O[C@@H]1[C@H](C)OC(=O)[C@@H]1CCCCCCCCCCCCCCC1=C[C@H](C)OC1=O | inactive | inactive | inactive | inactive | inactive | inactive | – |
